Measured values from ChEMBL document CHEMBL4130592, “In Silico HTS and Structure Based Optimization of Indazole-Derived ULK1 Inhibitors” (ACS Med Chem Lett, 2017).
Values belong to the molecule of their own block, whether it stands above or below them.

How the values were obtained:
[1] = molecular target: T1, Serine/threonine-protein kinase ULK1 (Homo sapiens, UniProt O75385); assay: Inhibition of ATG13 binding to full-length ULK1 (unknown origin) expressed in HEK293T cells preincubated for 15 mins followed by human C-terminal FLAG-tagged ATG13 addition measured after 30 mins by Alphascreen assay; type: cell-based
T1 sequence (O75385 whole entry): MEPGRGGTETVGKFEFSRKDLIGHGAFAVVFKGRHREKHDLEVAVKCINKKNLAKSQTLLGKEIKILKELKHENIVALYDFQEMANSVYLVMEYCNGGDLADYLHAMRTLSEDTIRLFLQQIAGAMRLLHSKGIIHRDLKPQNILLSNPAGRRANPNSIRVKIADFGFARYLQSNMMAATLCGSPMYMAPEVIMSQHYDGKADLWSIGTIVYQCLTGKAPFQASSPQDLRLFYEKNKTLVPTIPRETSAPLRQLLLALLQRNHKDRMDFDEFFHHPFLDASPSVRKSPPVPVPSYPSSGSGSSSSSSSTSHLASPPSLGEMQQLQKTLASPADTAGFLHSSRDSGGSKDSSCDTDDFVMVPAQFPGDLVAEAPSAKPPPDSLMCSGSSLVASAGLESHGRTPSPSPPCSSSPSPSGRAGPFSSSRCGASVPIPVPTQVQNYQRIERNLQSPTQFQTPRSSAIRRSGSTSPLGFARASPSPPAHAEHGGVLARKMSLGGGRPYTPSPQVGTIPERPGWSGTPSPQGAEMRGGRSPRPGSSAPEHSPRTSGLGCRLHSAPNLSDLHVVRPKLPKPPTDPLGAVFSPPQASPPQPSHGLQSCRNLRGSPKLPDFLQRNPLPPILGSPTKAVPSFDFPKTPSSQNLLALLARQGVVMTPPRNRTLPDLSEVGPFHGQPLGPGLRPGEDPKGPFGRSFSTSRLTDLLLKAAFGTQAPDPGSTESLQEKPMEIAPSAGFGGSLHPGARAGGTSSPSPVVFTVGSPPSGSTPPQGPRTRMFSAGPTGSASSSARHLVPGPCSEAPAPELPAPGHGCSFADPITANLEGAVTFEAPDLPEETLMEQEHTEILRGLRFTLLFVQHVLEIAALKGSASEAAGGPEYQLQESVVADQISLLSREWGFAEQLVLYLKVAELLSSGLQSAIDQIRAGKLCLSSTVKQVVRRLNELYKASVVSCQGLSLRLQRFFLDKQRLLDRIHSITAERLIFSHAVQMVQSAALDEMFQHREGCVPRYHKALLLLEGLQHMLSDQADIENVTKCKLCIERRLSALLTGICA

[2] = molecular target: Cytochrome P450 3A4 (Homo sapiens, UniProt P08684); assay: Inhibition of CYP3A4 (unknown origin) at 10 uM; type: ADME
[3] = Stability in mouse microsomes; type: ADME, Microsome
[4] = molecular target: Cytochrome P450 2D6 (Homo sapiens, UniProt P10635); assay: Inhibition of CYP2D6 (unknown origin) at 10 uM; type: ADME
[5] = Stability in human microsomes; type: ADME, Microsome
[6] = Stability in rat microsomes; type: ADME, Microsome
[7] = molecular target: Cytochrome P450 2C9 (Homo sapiens, UniProt P11712); assay: Inhibition of CYP2C9 (unknown origin) at 10 uM; type: ADME
[8] = molecular target: T2, Cytochrome P450 1A2 (Homo sapiens, UniProt P05177); assay: Inhibition of CYP1A2 (unknown origin) at 10 uM; type: ADME
T2 sequence (P05177 whole entry): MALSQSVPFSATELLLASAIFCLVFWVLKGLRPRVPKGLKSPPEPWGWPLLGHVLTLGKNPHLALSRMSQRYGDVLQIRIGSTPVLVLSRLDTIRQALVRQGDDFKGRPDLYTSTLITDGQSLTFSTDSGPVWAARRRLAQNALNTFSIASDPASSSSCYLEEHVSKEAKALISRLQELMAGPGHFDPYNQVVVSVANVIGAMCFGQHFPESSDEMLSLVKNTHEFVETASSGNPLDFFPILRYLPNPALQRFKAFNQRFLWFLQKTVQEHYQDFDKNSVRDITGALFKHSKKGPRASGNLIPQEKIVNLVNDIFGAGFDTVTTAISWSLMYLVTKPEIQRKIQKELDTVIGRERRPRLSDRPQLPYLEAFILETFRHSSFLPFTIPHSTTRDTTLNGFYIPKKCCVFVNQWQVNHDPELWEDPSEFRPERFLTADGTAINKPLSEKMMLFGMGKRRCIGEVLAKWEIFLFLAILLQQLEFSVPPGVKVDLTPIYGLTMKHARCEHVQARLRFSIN

[9] = Half life in human microsomes; type: ADME, Microsome

Sequence of Cytochrome P450 3A4 (P08684 whole entry): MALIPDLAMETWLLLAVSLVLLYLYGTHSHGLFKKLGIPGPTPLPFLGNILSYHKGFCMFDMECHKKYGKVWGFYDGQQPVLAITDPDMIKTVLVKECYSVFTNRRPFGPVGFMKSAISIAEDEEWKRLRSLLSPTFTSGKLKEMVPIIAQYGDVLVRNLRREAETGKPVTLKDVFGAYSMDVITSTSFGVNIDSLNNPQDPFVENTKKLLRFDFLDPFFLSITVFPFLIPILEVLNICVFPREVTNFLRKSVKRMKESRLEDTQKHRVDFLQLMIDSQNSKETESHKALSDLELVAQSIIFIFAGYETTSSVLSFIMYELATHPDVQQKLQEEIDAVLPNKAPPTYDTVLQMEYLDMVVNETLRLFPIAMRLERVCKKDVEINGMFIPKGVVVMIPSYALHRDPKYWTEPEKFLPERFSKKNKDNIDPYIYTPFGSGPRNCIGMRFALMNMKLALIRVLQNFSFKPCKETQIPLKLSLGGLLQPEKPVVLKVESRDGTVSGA
Sequence of Cytochrome P450 2C9 (P11712 whole entry): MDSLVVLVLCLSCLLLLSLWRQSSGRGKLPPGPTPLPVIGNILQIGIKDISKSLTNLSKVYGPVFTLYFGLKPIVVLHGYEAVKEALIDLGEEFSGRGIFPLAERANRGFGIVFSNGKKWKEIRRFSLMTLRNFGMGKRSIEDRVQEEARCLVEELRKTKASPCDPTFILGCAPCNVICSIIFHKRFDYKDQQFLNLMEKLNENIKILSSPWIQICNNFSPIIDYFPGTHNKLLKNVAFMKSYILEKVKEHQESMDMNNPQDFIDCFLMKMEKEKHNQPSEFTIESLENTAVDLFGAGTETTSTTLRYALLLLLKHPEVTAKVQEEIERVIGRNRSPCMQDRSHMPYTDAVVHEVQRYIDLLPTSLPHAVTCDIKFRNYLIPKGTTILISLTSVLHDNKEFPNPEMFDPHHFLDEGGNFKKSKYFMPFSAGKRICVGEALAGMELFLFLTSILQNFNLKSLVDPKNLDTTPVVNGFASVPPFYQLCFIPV
Sequence of Cytochrome P450 2D6 (P10635 whole entry): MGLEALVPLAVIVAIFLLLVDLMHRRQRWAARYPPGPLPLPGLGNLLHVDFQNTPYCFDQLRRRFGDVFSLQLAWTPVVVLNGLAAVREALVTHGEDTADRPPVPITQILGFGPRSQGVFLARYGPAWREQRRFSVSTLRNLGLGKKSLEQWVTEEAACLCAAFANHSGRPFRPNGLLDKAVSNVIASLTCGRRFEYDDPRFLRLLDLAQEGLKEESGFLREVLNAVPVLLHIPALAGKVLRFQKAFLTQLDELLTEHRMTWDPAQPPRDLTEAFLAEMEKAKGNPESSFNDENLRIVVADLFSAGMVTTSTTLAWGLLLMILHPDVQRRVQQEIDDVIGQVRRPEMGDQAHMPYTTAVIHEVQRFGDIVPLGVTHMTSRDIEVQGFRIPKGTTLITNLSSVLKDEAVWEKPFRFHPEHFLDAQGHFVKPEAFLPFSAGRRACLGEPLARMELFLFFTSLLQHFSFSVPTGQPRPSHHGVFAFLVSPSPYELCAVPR

IC50 [1]: 0.477 µM
SMILES: COc1ccc(CNc2n[nH]c3ccc(NC(=O)C4CCCC(N)C4)cc23)cc1 (stereo unspecified)

IC50 [1]: 0.239 µM
SMILES: NC1CCCC(C(=O)Nc2ccc3[nH]nc(Nc4ccnc5ccccc45)c3c2)C1 (stereo unspecified)

IC50 [1]: 0.242 µM
SMILES: NC1CCCC(C(=O)Nc2ccc3[nH]nc(NC(=O)c4ccccc4)c3c2)C1 (stereo unspecified)

IC50 [1]: 14 µM
SMILES: Nc1n[nH]c2ccc(NC(=O)[C@H]3CC[C@H](N)CC3)cc12

IC50 [1]: 1.83 µM
SMILES: O=C(Nc1ccc2[nH]nc(Nc3cccc4ccccc34)c2c1)C1CCOCC1

inhibition (INH) [2]: Not Active | Stability [3]: Stable | IC50 [1]: 0.315 µM | inhibition (INH) [4]: Not Active | Stability [5]: Stable | Stability [6]: Stable | inhibition (INH) [7]: Not Active | inhibition (INH) [8]: Not Active
SMILES: O=C(Nc1ccc2[nH]nc(Nc3cccc4ccccc34)c2c1)C1CCNCC1

IC50 [1]: 0.288 µM
SMILES: NC1CCCC(C(=O)Nc2ccc3[nH]nc(Nc4cccc(C(F)(F)F)c4)c3c2)C1 (stereo unspecified)

IC50 [1]: > 33 µM
SMILES: NCCCC(=O)Nc1ccc2[nH]nc(N)c2c1

IC50 [1]: 18.1 µM
SMILES: Nc1cccc(C(=O)Nc2ccc3[nH]nc(N)c3c2)c1

inhibition (INH) [2]: Not Active | Stability [3]: Stable | IC50 [1]: 0.11 µM | inhibition (INH) [4]: Not Active | Stability [5]: Stable | Stability [6]: Stable | inhibition (INH) [7]: Not Active | inhibition (INH) [8]: Not Active
SMILES: COc1ccccc1Nc1n[nH]c2ccc(NC(=O)C3CCCC(N)C3)cc12 (stereo unspecified)

IC50 [1]: 0.183 µM
SMILES: COC(=O)c1cccc(Nc2n[nH]c3ccc(NC(=O)C4CCCC(N)C4)cc23)c1 (stereo unspecified)

IC50 [1]: 1.49 µM
SMILES: Nc1n[nH]c2ccc(NC(=O)[C@H]3CC[C@@H](N)CC3)cc12

half-life [9]: 3.73 h | inhibition (INH) [2]: Not Active | inhibition (INH) [4]: Not Active | inhibition (INH) [7]: Not Active | inhibition (INH) [8]: Not Active
SMILES: N[C@H]1CCC[C@@H](C(=O)Nc2ccc3[nH]nc(Nc4cccc5ccccc45)c3c2)C1

IC50 [1]: 2.73 µM
SMILES: NC1CCCC(C(=O)Nc2ccc3[nH]nc(Nc4ccccc4)c3c2)C1 (stereo unspecified)

IC50 [1]: 4.94 µM
SMILES: O=C(Nc1ccc2[nH]nc(Nc3cccc4ccccc34)c2c1)C1CCN1 (stereo unspecified)

IC50 [1]: 0.56 µM
SMILES: Nc1n[nH]c2ccc(NC(=O)C3CCNCC3)cc12

IC50 [1]: 4.23 µM
SMILES: CN(C)C1CCCC(C(=O)Nc2ccc3[nH]nc(Nc4cccc5ccccc45)c3c2)C1 (stereo unspecified)

IC50 [1]: 0.416 µM
SMILES: NC1CCCC(C(=O)Nc2ccc3[nH]nc(Nc4ccc(Br)cc4)c3c2)C1 (stereo unspecified)

IC50 [1]: 0.04 µM
SMILES: NC1CCCC(C(=O)Nc2ccc3[nH]nc(Nc4cccc5cnccc45)c3c2)C1 (stereo unspecified)

inhibition (INH) [2]: Not Active | Stability [3]: Stable | inhibition (INH) [4]: Not Active | Stability [5]: Stable | Stability [6]: Stable | inhibition (INH) [7]: Not Active | inhibition (INH) [8]: Not Active
SMILES: NC1CCCC(C(=O)Nc2ccc3[nH]nc(Nc4cccc5ccccc45)c3c2)C1 (mixture of isomers)

IC50 [1]: 0.67 µM
SMILES: Nc1n[nH]c2ccc(NC(=O)C3CCCNC3)cc12 (racemic)

IC50 [1]: 0.84 µM
SMILES: Nc1n[nH]c2ccc(NC(=O)C3CCCCN3)cc12 (racemic)
